According to ChEMBL document CHEMBL1126229, “Enol lactone derivatives as inhibitors of human neutrophil elastase and trypsin-like proteases” (Bioorg Med Chem Lett, 1992):

Assays:
[1] = target: T1, Neutrophil elastase (Homo sapiens) (UniProt P08246); experiment: Specificity constant on human neutrophil elastase was determined at 30 percent and at 35 minutes for maximum inhibition with 0 minutes persistence of inhibition
T1 sequence (whole entry): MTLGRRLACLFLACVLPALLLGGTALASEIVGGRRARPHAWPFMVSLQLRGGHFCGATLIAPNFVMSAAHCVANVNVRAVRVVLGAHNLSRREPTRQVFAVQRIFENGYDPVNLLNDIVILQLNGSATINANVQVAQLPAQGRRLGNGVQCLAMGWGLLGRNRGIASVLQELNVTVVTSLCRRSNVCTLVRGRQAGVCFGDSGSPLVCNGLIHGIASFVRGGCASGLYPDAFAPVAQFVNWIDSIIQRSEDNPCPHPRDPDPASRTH

[2] = target: T1, Neutrophil elastase (Homo sapiens); experiment: Rate constant of acylation on human neutrophil elastase was determined at 30 percent and at 35 minutes for maximum inhibition with 0 minutes persistence of inhibition
[3] = target: T1, Neutrophil elastase (Homo sapiens); experiment: Binding constant on human neutrophil elastase was determined at 30 percent and at 35 minutes for maximum inhibition with 0 minutes persistence of inhibition
[4] = target: T2, Chymotrypsin-like elastase family member 2A (Sus scrofa) (UniProt P08419); experiment: Specificity constant on porcine pancreatic elastase was determined at 10 percent and at 78 minutes for maximum inhibition and no enzyme activity was recovered over the 2 h-time
T2 sequence (whole entry): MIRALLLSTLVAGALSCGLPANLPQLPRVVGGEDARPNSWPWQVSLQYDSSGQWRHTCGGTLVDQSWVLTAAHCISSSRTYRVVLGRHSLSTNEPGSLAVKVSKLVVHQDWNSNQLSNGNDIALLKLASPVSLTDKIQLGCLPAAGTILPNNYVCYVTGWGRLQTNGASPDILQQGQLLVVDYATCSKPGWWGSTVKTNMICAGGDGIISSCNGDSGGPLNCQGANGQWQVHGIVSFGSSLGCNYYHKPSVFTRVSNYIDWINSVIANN

[5] = target: T2, Chymotrypsin-like elastase family member 2A (Sus scrofa); experiment: Binding constant on porcine pancreatic elastase was determined at 10 percent and at 78 minutes for maximum inhibition and no enzyme activity was recovered over the 2 h-time
[6] = target: T2, Chymotrypsin-like elastase family member 2A (Sus scrofa); experiment: Rate constant of acylation on porcine pancreatic elastase was determined at 10 percent and at 78 minutes for maximum inhibition and no enzyme activity was recovered over the 2 h-time
[7] = target: T1, Neutrophil elastase (Homo sapiens); experiment: Specificity constant on human neutrophil elastase was determined at 90 percent and at 93 minutes for maximum inhibition and no enzyme activity was recovered over the 2 h-time
[8] = target: T1, Neutrophil elastase (Homo sapiens); experiment: Rate constant of acylation on human neutrophil elastase was determined at 90 percent and at 93 minutes for maximum inhibition and no enzyme activity was recovered over the 2 h-time
[9] = target: T1, Neutrophil elastase (Homo sapiens); experiment: Binding constant on human neutrophil elastase was determined at 90 percent and at 93 minutes for maximum inhibition and no enzyme activity was recovered over the 2 h-time
[10] = target: T2, Chymotrypsin-like elastase family member 2A (Sus scrofa); experiment: Rate constant of acylation on porcine pancreatic elastase was determined at 30 percent and at 99 minutes for maximum inhibition and no enzyme activity was recovered over the 2 h-time
[11] = target: T2, Chymotrypsin-like elastase family member 2A (Sus scrofa); experiment: Specificity constant on porcine pancreatic elastase was determined at 30 percent and at 99 minutes for maximum inhibition and no enzyme activity was recovered over the 2 h-time
Serine protease 1 [12] = target: T3, Serine protease 1 (Homo sapiens, UniProt P07477); experiment: Binding constant on trypsin was determined at 10 percent and at 95 minutes for maximum inhibition and no enzyme activity was recovered over the 2 h-time
Serine protease 1 [13] = target: T3, Serine protease 1; experiment: Rate constant of acylation on trypsin was determined at 10 percent and at 95 minutes for maximum inhibition and no enzyme activity was recovered over the 2 h-time
[14] = target: Chymotrypsinogen A (Bos taurus) (UniProt P00766); experiment: Specificity constant on alpha-chymotrypsin was determined at 10 percent and at 99 minutes for maximum inhibition and no enzyme activity was recovered over the 2 h-time
Serine protease 1 [15] = target: T3, Serine protease 1; experiment: Specificity constant on trypsin was determined at 10 percent and at 95 minutes for maximum inhibition and no enzyme activity was recovered over the 2 h-time
[16] = target: Chymotrypsinogen A (Bos taurus) (UniProt P00766); experiment: Binding constant on alpha-chymotrypsin was determined at 10 percent and at 99 minutes for maximum inhibition and no enzyme activity was recovered over the 2 h-time
[17] = target: Chymotrypsinogen A (Bos taurus) (UniProt P00766); experiment: Rate constant of acylation on alpha-chymotrypsin was determined at 10 percent and at 99 minutes for maximum inhibition and no enzyme activity was recovered over the 2 h-time
[18] = target: T2, Chymotrypsin-like elastase family member 2A (Sus scrofa); experiment: Binding constant on porcine pancreatic elastase was determined at 30 percent and at 99 minutes for maximum inhibition and no enzyme activity was recovered over the 2 h-time
Plasminogen [19] = target: T4, Plasminogen (Homo sapiens, UniProt P00747); experiment: Rate constant of deacylation for plasmin; Fast and could not be measured
Prothrombin [20] = target: T5, Prothrombin (Homo sapiens, UniProt P00734); experiment: Rate constant of deacylation for thrombin
[21] = target: T6, Urokinase-type plasminogen activator (Homo sapiens, UniProt P00749); experiment: Rate constant of deacylation for Urokinase-type plasminogen activator
Plasminogen [22] = target: T4, Plasminogen
Plasminogen [23] = target: T4, Plasminogen; remark: listed apart in the source
Plasminogen [24] = target: T4, Plasminogen; remark: listed apart in the source
Description: Binding constant on plasmin was determined at 30 percent and at 82 minutes for maximum inhibition and no enzyme activity was recovered over the 2 h-time

[25] = target: T6, Urokinase-type plasminogen activator
Prothrombin [26] = target: T5, Prothrombin
Prothrombin [27] = target: T5, Prothrombin; remark: listed apart in the source
Prothrombin [28] = target: T5, Prothrombin; remark: listed apart in the source
[29] = target: T6, Urokinase-type plasminogen activator; remark: listed apart in the source
[30] = target: T6, Urokinase-type plasminogen activator; remark: listed apart in the source
Description: Specificity constant on Urokinase-type plasminogen activator was determined at 0 percent and at 91 minutes for maximum inhibition and no enzyme activity was recovered over the 2 h-time

Serine protease 1 [31] = target: T3, Serine protease 1; experiment: Rate constant of deacylation for trypsin
[32] = target: T1, Neutrophil elastase (Homo sapiens); experiment: Specificity constant on human neutrophil elastase was determined at 30 percent and at 10 minutes for maximum inhibition with 0 minutes persistence of inhibition
[33] = target: T1, Neutrophil elastase (Homo sapiens); experiment: Rate constant of acylation on human neutrophil elastase was determined at 30 percent and at 10 minutes for maximum inhibition with 0 minutes persistence of inhibition
[34] = target: T1, Neutrophil elastase (Homo sapiens); experiment: Binding constant on human neutrophil elastase was determined at 30 percent and at 10 minutes for maximum inhibition with 0 minutes persistence of inhibition
[35] = target: T2, Chymotrypsin-like elastase family member 2A (Sus scrofa); experiment: Specificity constant on porcine pancreatic elastase was determined at 10 percent and at 73 minutes for maximum inhibition and no enzyme activity was recovered over the 2 h-time
[36] = target: T2, Chymotrypsin-like elastase family member 2A (Sus scrofa); experiment: Binding constant on porcine pancreatic elastase was determined at 10 percent and at 73 minutes for maximum inhibition and no enzyme activity was recovered over the 2 h-time
[37] = target: T2, Chymotrypsin-like elastase family member 2A (Sus scrofa); experiment: Rate constant of acylation on porcine pancreatic elastase was determined at 10 percent and at 73 minutes for maximum inhibition and no enzyme activity was recovered over the 2 h-time

T3 sequence (P07477 whole entry): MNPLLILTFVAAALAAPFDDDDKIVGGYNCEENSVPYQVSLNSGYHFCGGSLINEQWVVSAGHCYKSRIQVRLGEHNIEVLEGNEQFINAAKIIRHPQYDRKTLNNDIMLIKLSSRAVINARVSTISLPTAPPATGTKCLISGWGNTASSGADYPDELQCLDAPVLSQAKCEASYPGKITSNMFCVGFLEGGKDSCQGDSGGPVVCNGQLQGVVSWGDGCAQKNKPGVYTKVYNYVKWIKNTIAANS
T4 sequence (P00747 97-580 limits assumed): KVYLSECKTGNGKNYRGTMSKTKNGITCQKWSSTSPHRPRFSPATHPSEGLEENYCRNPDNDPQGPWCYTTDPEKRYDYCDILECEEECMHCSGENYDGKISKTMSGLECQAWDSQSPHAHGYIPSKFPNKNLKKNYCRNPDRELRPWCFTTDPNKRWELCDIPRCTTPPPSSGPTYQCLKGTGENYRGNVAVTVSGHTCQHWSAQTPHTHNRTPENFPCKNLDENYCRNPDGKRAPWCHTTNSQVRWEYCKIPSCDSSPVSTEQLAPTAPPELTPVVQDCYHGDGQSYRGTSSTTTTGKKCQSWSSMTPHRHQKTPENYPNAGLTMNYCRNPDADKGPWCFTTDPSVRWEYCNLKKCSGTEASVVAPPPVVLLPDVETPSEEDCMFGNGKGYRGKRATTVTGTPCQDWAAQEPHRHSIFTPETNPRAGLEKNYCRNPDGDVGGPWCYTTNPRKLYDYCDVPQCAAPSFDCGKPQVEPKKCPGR
T4 sequence (P00747 581-810 limits assumed): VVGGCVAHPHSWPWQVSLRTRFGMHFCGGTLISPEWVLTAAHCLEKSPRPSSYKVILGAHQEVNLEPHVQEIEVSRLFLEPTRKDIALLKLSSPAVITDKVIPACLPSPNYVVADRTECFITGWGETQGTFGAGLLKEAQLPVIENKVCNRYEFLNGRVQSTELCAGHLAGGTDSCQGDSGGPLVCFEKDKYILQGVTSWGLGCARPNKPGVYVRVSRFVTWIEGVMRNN

Molecule `CC1CC(=O)O/C(=C/Br)C1` (centres undefined) has a ka/Ki [1] of 333 M⁻¹ s⁻¹, a ka [2] of 0.48 min⁻¹ and a Ks/i [3] of 22.6 µM. The ka/Ki [4] was 16.7 M⁻¹ s⁻¹, the Ks/i [5] was 216 µM and the ka [6] was 0.33 min⁻¹.
In the case of `CC(C)C1CC/C(=C\Br)OC1=O` (centres undefined), the ka/Ki [7] is reported as 14500 M⁻¹ s⁻¹, the ka [8] is reported as 0.67 min⁻¹ and the Ks/i [9] is reported as 0.77 µM. The ka [10] was 0.52 min⁻¹, the ka/Ki [11] was 333 M⁻¹ s⁻¹ and the Ks/i (Serine protease 1 [12]) was 44 µM. It also gave a ka (Serine protease 1 [13]) of 1.8 min⁻¹, a ka/Ki [14] of 10000 M⁻¹ s⁻¹ and a ka/Ki (Serine protease 1 [15]) of 667 M⁻¹ s⁻¹. For the same molecule, the Ks/i [16] was 9.8 µM, the ka [17] was 6 min⁻¹ and the Ks/i [18] was 26.9 µM.
For `C=C1CCC(c2ccc(CNC(=N)N)cc2)C(=O)O1` (centres undefined), the Kd (Plasminogen [19]) was “Not measurable”, the Kd (Prothrombin [20]) was 0.0001 s⁻¹ and the Kd [21] was 0.000733 s⁻¹. For the same molecule, the ka/Ki (Plasminogen [22]) was 2000 M⁻¹ s⁻¹, the ka (Plasminogen [23]) was 57 min⁻¹ and the Ks/i (Plasminogen [24]) was 466 µM. For the same molecule, the Ks/i [25] was 0.35 µM, the Ks/i (Prothrombin [26]) was 37.9 µM and the ka (Prothrombin [27]) was 5.58 min⁻¹. The ka/Ki (Prothrombin [28]) was 2500 M⁻¹ s⁻¹, the ka [29] was 9.8 min⁻¹ and the ka/Ki [30] was 467000 M⁻¹ s⁻¹.
With `C=C1CC(c2ccc(NC(=N)N)cc2)CC(=O)O1` (centres undefined) the Kd (Plasminogen [19]) was “Not measurable”, the Kd [21] was 0.00015 s⁻¹ and the Kd (Serine protease 1 [31]) was 3.3e-05 s⁻¹.
In the case of `C=C1CC(C)CC(=O)O1` (centres undefined), the ka/Ki [32] is reported as 500 M⁻¹ s⁻¹, the ka [33] is reported as 0.6 min⁻¹ and the Ks/i [34] is reported as 22.7 µM. The ka/Ki [35] was 167 M⁻¹ s⁻¹, the Ks/i [36] was 393 µM and the ka [37] was 4.47 min⁻¹.
